Legend:
[1] = test system: Erysiphe graminis f. sp. tritici; experiment: Test A: wheat powdery mildew, test suspension sprayed on wheat seedlings, disease rating; type: in vivo; details: 200 ppm test suspension, 100 = 100% disease control, 0 = no control; for pest or weed control at 200 ppm: Blumeria graminis, 192 h
[2] = test system: Puccinia recondite f sp. tritici; experiment: Test B: wheat leaf rust, test suspension sprayed on wheat seedlings, disease rating; type: in vivo; details: for pest or weed control at 200 ppm / Test B disease control rating: 200 ppm test suspension;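 for all read-outs here: 200 ppm unless marked * meaning 40 ppm or ** meaning 10 ppm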
Fusarium graminearum = experiment: whole plant or invertebrate; type: in vivo
Septoria nodorum = experiment: Test D: wheat glume blotch, test suspension sprayed on wheat seedlings, disease rating; type: in vivo; details: 200 ppm test suspension; for pest or weed control at 200 ppm: Parastagonospora nodorum, 216 h
[3] = test system: Colletotrichum orbiculare; experiment: Test F: cucumber Colletotrichum anthracnose, test suspension sprayed on cucumber seedlings, disease rating; type: in vivo; details: 200 ppm test suspension; for pest or weed control at 200 ppm: Colletotrichum orbiculare, 144 h
Alternaria solani = experiment: Test G: tomato early blight, test suspension sprayed on seedlings, disease rating; type: in vivo; details: Alternaria solani, 168 h;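 note: 200 ppm unless marked * meaning 40 ppm or ** meaning 10 ppm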
Botrytis cinerea = experiment: Test H: tomato Botrytis, test suspension sprayed on tomato seedlings, disease rating; type: in vivo; details: 200 ppm test suspension; for pest or weed control at 200 ppm: Botrytis cinerea, 120 h
Rhizoctonia oryzae = experiment: Test I: turf brown patch, test suspension sprayed on creeping bent grass seedlings, disease rating; type: in vivo; details: 200 ppm test suspension; for pest or weed control at 200 ppm: Waitea circinata, in Agrostis stolonifera, 120 h
Phytophthora infestans = experiment: whole plant or invertebrate; type: in vivo; details: for Test J disease control rating: 200 ppm test suspension
Plasmopara viticola = experiment: Test K: grape downy mildew, grape seedlings inoculated and then sprayed, disease rating; type: in vivo; details: 200 ppm test suspension
Pythium aphanidermatum = experiment: Test L: bluegrass pythium blight, test suspension sprayed on bluegrass seedlings, disease rating; type: in vivo; details: for pest or weed control at 200 ppm / Test L disease control rating: 200 ppm test suspension;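 for all read-outs here: 200 ppm unless marked * meaning 40 ppm or ** meaning 10 ppm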
Septoria tritici = experiment: Test E: wheat leaf blotch, test suspension sprayed on wheat seedlings, disease rating; type: in vivo;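 note: 200 ppm unless marked * meaning 40 ppm or ** meaning 10 ppm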
Sclerotinia sclerotiorum = experiment: Test M: cucumber white mold, test suspension sprayed on cucumber seedlings, disease rating; type: in vivo; details: 200 ppm test suspension
Source text: General protocol for preparing test suspensions for Tests A-M: The test compounds were first dissolved in acetone in an amount equal to 3% of the final volume and then suspended at the desired concentration (in ppm) in acetone and purified water (50/50 mix) containing 250 ppm of the surfactant Trem® 014 (polyhydric alcohol esters). The resulting test suspensions were then used in Tests A-M. Spraying a 200 ppm test suspension to the point of run-off on the test plants was the equivalent of an application rate of 500 g/ha.
The test suspension was sprayed to the point of run-off on cucumber seedlings. The following day the seedlings were inoculated with a spore suspension of Sclerotinia sclerotiorum (the causal agent of cucumber white mold) and incubated in saturated atmosphere at 24° C. for 72 h, and then moved to a growth chamber at 24° C. for 3 additional days, after which time disease ratings were made.
Results for Tests A-M are given in Table A. In the table, a rating of 100 indicates 100% disease control and a rating of 0 indicates no disease control (relative to the controls). A dash (-) indicates no test results. All results are for 200 ppm test suspension except where followed by “*” which indicates 40 ppm or by “**” which indicates 10 ppm.

[4] = Fusarium graminearum, in Triticum aestivum, 192 h, read-out: Test C disease control rating
[5] = Phytophthora infestans, in Solanum lycopersicum, 120 h, read-out: Test J disease control rating

Structure (SMILES) | pest or weed control at 200 ppm [1] [%] | pest or weed control at 200 ppm ([2]; Puccinia, 192 h) [%] | pest or weed control at 200 ppm (Fusarium graminearum; [4]) [%] | pest or weed control at 200 ppm (Septoria nodorum) [%] | pest or weed control at 200 ppm [3] [%] | pest or weed control at 200 ppm (Botrytis cinerea) [%] | pest or weed control at 200 ppm (Rhizoctonia oryzae) [%] | pest or weed control at 200 ppm (Phytophthora infestans; [5]) [%] | Test K disease control rating (Plasmopara viticola) [%] | pest or weed control at 200 ppm (Pythium aphanidermatum; Pythium aphanidermatum, 120 h) [%] | melting point [°C] | Test A disease control rating [1] [%] | Test B disease control rating [2] [%] | Test D disease control rating (Septoria nodorum) [%] | Test E disease control rating (Septoria tritici; 200 ppm test suspension) [%] | Test F disease control rating [3] [%] | Test H disease control rating (Botrytis cinerea) [%] | Test I disease control rating (Rhizoctonia oryzae) [%] | Test J disease control rating (Phytophthora infestans) [%] | Test L disease control rating (Pythium aphanidermatum) [%] | other results
Fc1ccc(-c2nn3c(c2-c2ccnc(NC4CC4)n2)CCCN3)cc1 [Compound 131, N-cyclopropyl-4-[2-(4-fluorophenyl)-4,5,6,7-tetrahydropyrazolo[1,5-b]pyridazin-3-yl]-2-pyrimidinamine] | 96 | 100 | 100 | 87 | 58 | 9 | 57 | 97 | 0 | 100 | 184 to 187 |  |  |  |  |  |  |  |  |  | pest or weed control at 200 ppm (Alternaria solani; 200 ppm test suspension): 81%
CCC(C)Nc1nccc(-c2c(-c3ccc(F)cc3)nn3c2CCCC3)n1 (centres unmarked) [compound 2] |  |  |  |  |  |  |  |  | 0 |  |  | 0 | 98 | 98 | 97 | 85 | 92 | 31 | 47 | 100 | Test M disease control rating (Sclerotinia sclerotiorum): 0%
COCC(C)Nc1nccc(-c2c(-c3ccc(F)cc3)nn3c2CCCC3)n1 (centres unmarked) [compound 1] |  |  |  |  |  |  |  |  | 0 |  |  | 94 | 100 | 98 | 98 | 96 | 91 | 41 | 100 | 100 | Test C disease control rating (Fusarium graminearum; 200 ppm test suspension): 100%; Test M disease control rating (Sclerotinia sclerotiorum): 99%
CC(CO)Nc1nccc(-c2c(-c3ccc(F)cc3)nn3c2CCCN3)n1 (centres unmarked) [Compound 132, 2-[[4-[2-(4-fluorophenyl)-4,5,6,7-tetrahydropyrazolo[1,5-b]pyridazin-3-yl]-2-pyrimidinyl]amino]-1-propanol] | 66 |  |  | 0 | 0 | 0 | 0 |  |  |  | 165 to 167 |  |  |  |  |  |  |  |  |  | pest or weed control at 40 ppm ([2]; Puccinia, 192 h, 40 ppm test suspension (*)): 88%; pest or weed control at 40 ppm (Fusarium graminearum; [4]): 0%; pest or weed control at 40 ppm (Septoria tritici; Zymoseptoria tritici, 504 h, 40 ppm test suspension (*)): 0%; pest or weed control at 40 ppm (Alternaria solani; 40 ppm test suspension (*)): 0%; pest or weed control at 40 ppm (Phytophthora infestans; [5]): 65%; pest or weed control at 40 ppm (Pythium aphanidermatum; Pythium aphanidermatum, 120 h, 40 ppm test suspension (*)): 100%
Fc1ccc(-c2nn3c(c2-c2ccnc(NC4CC4)n2)CCCC3)cc1 [Compound 12, N-cyclopropyl-4-[2-(4-fluorophenyl)-4,5,6,7-tetrahydropyrazolo[1,5-a]pyridin-3-yl]-2-pyrimidinamine] | 97 | 99 | 100 | 99 | 94 | 98 | 64 | 100 | 0 | 100 | 164 to 165 |  |  |  |  |  |  |  |  |  | pest or weed control at 200 ppm (Septoria tritici; Zymoseptoria tritici, 504 h, 200 ppm test suspension): 100%

Reference: patent publication US8288375B2, “Fungicidal bicyclic pyrazoles” (E.I. du Pont de Nemours and Company, priority 2007, dated 2012)
